Measured values reported in patent publication US20100274050A1, “SOLID MILNACIPRAN AND PROCESS FOR THE PREPARATION OF THE SAME” (Glenmark Generics Limited, priority 2009, published 2010).
Where a name gives a salt, the structure may show the parent alone.

Experiment: Bulk density / tapped density (tapped density tester ETD-1020)
Format: physicochemical
Excerpt: The bulk density used tapped density tester dual-platform ETD-1020 (Electrolab). System specifications. Speed: nominal rate of 300 taps per minute, Accuracy: Actual setting ±1 tap, Drop height: 14±2 mm. Platform rotation: 5-15 rotations/minute.

Structure (SMILES): CCN(CC)C(=O)C1(c2ccccc2)CC1CN (stereo not shown) [milnacipran hydrochloride, Milnacipran hydrochloride]
- Tapped density: Tapped density = 0.43 g/ml
